Cc1ccc(S(N)(=O)=O)cc1
Conditions	solubility (mole fraction)
in acetone, 273.15 K	0.128
in acetone, 279.15 K	0.137
in acetone, 283.65 K	0.144
in acetone, 289.15 K	0.154
in acetone, 293.65 K	0.163
in acetone, 298.85 K	0.173
in acetone, 303.25 K	0.184
in acetone, 308.95 K	0.197
in acetone, 313.15 K	0.211
in acetone, 317.65 K	0.227
in acetone, 322.15 K	0.243
in acetonitrile, 273.15 K	0.0408
in acetonitrile, 279.15 K	0.047
in acetonitrile, 284.15 K	0.0538
in acetonitrile, 289.15 K	0.063
in acetonitrile, 294.15 K	0.0722
in acetonitrile, 299.15 K	0.0826
in acetonitrile, 303.65 K	0.093
in acetonitrile, 309.15 K	0.106
in acetonitrile, 313.15 K	0.121
in acetonitrile, 319.15 K	0.143
in acetonitrile, 324.75 K	0.164
in cyclohexanone, 273.15 K	0.122
in cyclohexanone, 279.15 K	0.131
in cyclohexanone, 284.15 K	0.139
in cyclohexanone, 289.15 K	0.147
in cyclohexanone, 294.15 K	0.157
in cyclohexanone, 299.15 K	0.169
in cyclohexanone, 303.65 K	0.18
in cyclohexanone, 309.15 K	0.192
in cyclohexanone, 313.15 K	0.206
in cyclohexanone, 319.15 K	0.226
in cyclohexanone, 324.75 K	0.244
in cyclopentanone, 273.15 K	0.149
in cyclopentanone, 279.15 K	0.158
in cyclopentanone, 284.15 K	0.166
in cyclopentanone, 289.15 K	0.175
in cyclopentanone, 294.15 K	0.185
in cyclopentanone, 299.15 K	0.196
in cyclopentanone, 303.65 K	0.206
in cyclopentanone, 309.15 K	0.218
in cyclopentanone, 313.15 K	0.231
in cyclopentanone, 319.15 K	0.249
in cyclopentanone, 324.75 K	0.266
in dichloromethane, 273.15 K	0.00336
in dichloromethane, 279.15 K	0.00392
in dichloromethane, 284.15 K	0.00458
in dichloromethane, 289.15 K	0.00587
in dichloromethane, 294.15 K	0.00705
in dichloromethane, 299.15 K	0.00877
in dichloromethane, 303.65 K	0.0103
in dichloromethane, 309.15 K	0.0128
in dichloromethane, 312.15 K	0.0143
in ethanol, 273.15 K	0.0174
in ethanol, 279.15 K	0.0203
in ethanol, 283.65 K	0.0233
in ethanol, 289.15 K	0.0268
in ethanol, 293.65 K	0.0312
in ethanol, 298.85 K	0.0361
in ethanol, 303.25 K	0.0425
in ethanol, 308.95 K	0.05
in ethanol, 313.15 K	0.0592
in ethanol, 317.65 K	0.0705
in ethanol, 322.15 K	0.0842
in ethyl acetate, 273.15 K	0.0364
in ethyl acetate, 279.15 K	0.0401
in ethyl acetate, 283.65 K	0.0442
in ethyl acetate, 289.15 K	0.0481
in ethyl acetate, 293.65 K	0.0541
in ethyl acetate, 298.85 K	0.059
in ethyl acetate, 303.25 K	0.0652
in ethyl acetate, 308.95 K	0.0718
in ethyl acetate, 313.15 K	0.0797
in ethyl acetate, 317.65 K	0.0897
in ethyl acetate, 322.15 K	0.1
in ethyl formate, 273.15 K	0.023
in ethyl formate, 279.15 K	0.0268
in ethyl formate, 284.15 K	0.0308
in ethyl formate, 289.15 K	0.0342
in ethyl formate, 294.15 K	0.0391
in ethyl formate, 299.15 K	0.0447
in ethyl formate, 303.65 K	0.0507
in ethyl formate, 309.15 K	0.0582
in ethyl formate, 313.15 K	0.0655
in ethyl formate, 319.15 K	0.0784
in ethyl formate, 324.75 K	0.0914
in isobutanol, 273.15 K	0.00456
in isobutanol, 279.15 K	0.00562
in isobutanol, 283.65 K	0.0069
in isobutanol, 289.15 K	0.00846
in isobutanol, 293.65 K	0.0103
in isobutanol, 298.85 K	0.0124
in isobutanol, 303.25 K	0.016
in isobutanol, 308.95 K	0.0193
in isobutanol, 313.15 K	0.0236
in isobutanol, 317.65 K	0.0288
in isobutanol, 322.15 K	0.0357
in isopentanol, 273.15 K	0.00515
in isopentanol, 279.15 K	0.00618
in isopentanol, 284.15 K	0.00814
in isopentanol, 289.15 K	0.00944
in isopentanol, 294.15 K	0.0114
in isopentanol, 299.15 K	0.0139
in isopentanol, 303.65 K	0.0168
in isopentanol, 309.15 K	0.0204
in isopentanol, 313.15 K	0.0251
in isopentanol, 319.15 K	0.0319
in isopentanol, 324.75 K	0.039
in isopropanol, 273.15 K	0.0077
in isopropanol, 279.15 K	0.00943
in isopropanol, 283.65 K	0.0114
in isopropanol, 289.15 K	0.0137
in isopropanol, 293.65 K	0.0167
in isopropanol, 298.85 K	0.0201
in isopropanol, 303.25 K	0.0246
in isopropanol, 308.95 K	0.0301
in isopropanol, 313.15 K	0.0365
in isopropanol, 317.65 K	0.0447
in isopropanol, 322.15 K	0.0552
in methanol, 273.15 K	0.0316
in methanol, 279.15 K	0.0362
in methanol, 283.65 K	0.0415
in methanol, 289.15 K	0.0473
in methanol, 293.65 K	0.0544
in methanol, 298.85 K	0.0626
in methanol, 303.25 K	0.0724
in methanol, 308.95 K	0.0836
in methanol, 313.15 K	0.0971
in methanol, 317.65 K	0.112
in methanol, 322.15 K	0.131
in methyl acetate, 273.15 K	0.0494
in methyl acetate, 279.15 K	0.0558
in methyl acetate, 284.15 K	0.062
in methyl acetate, 289.15 K	0.0676
in methyl acetate, 294.15 K	0.075
in methyl acetate, 299.15 K	0.0833
in methyl acetate, 303.65 K	0.0925
in methyl acetate, 309.15 K	0.103
in methyl acetate, 313.15 K	0.115
in methyl acetate, 319.15 K	0.132
in methyl acetate, 324.75 K	0.148
in n-butanol, 273.15 K	0.00725
in n-butanol, 279.15 K	0.00871
in n-butanol, 283.65 K	0.0104
in n-butanol, 289.15 K	0.0124
in n-butanol, 293.65 K	0.0148
in n-butanol, 298.85 K	0.0172
in n-butanol, 303.25 K	0.0209
in n-butanol, 308.95 K	0.0253
in n-butanol, 313.15 K	0.0303
in n-butanol, 317.65 K	0.0363
in n-butanol, 322.15 K	0.044
in n-pentanol, 273.15 K	0.00607
in n-pentanol, 279.15 K	0.00712
in n-pentanol, 284.15 K	0.00906
in n-pentanol, 289.15 K	0.0107
in n-pentanol, 294.15 K	0.0128
in n-pentanol, 299.15 K	0.0153
in n-pentanol, 303.65 K	0.0182
in n-pentanol, 309.15 K	0.022
in n-pentanol, 313.15 K	0.0271
in n-pentanol, 319.15 K	0.0343
in n-pentanol, 324.75 K	0.0416
in n-propanol, 273.15 K	0.00916
in n-propanol, 279.15 K	0.0111
in n-propanol, 283.65 K	0.013
in n-propanol, 289.15 K	0.0154
in n-propanol, 293.65 K	0.0183
in n-propanol, 298.85 K	0.0215
in n-propanol, 303.25 K	0.0259
in n-propanol, 308.95 K	0.0312
in n-propanol, 313.15 K	0.0376
in n-propanol, 317.65 K	0.0455
in n-propanol, 322.15 K	0.0554

Reference: BigSolDB 2.1
